Bounds are passed on as bounds.

This test can be described thus: HCV Replicon Luciferase Assay: To evaluate compound efficacy, titrated compounds were transferred to sterile 384-well tissue culture treated plates, and the plates were seeded with HCV replicon cells (50 μL at a density of 2.4×10^3 cells/well) in DMEM containing 4% FBS (final DMSO concentration at 0.5%). After 3 days incubation at 37° C., cells were analyzed for Renilla Luciferase activity using the EnduRen substrate (Promega cat #E6485) according to the manufacturer's directions. Briefly, the EnduRen substrate was diluted in DMEM and then added to the plates to a final concentration of 7.5 μM. The plates were incubated for at least 1 h at 37° C. then read on a Viewlux Imager (PerkinElmer) using a luminescence program. The 50% effective concentration (EC50) was calculated using the four-parameter logistic formula noted above.To assess cytotoxicity of compounds, Cell Titer-Blue (Promega) was added to the EnduRen-containing plates and incubated for at least 4 hrs at 37° C. The fluorescence signal from each well was read using a Viewlux Imager. All CC50 values were calculated using the four-parameter logistic formula. The conditions noted are these: 72 h.

In the case of `CNC(=O)c1c(-c2ccc(F)cc2)oc2cc(N(CCF)S(C)(=O)=O)c(-c3cccc(C(=O)N[C@@H](COC)C4CC4)c3)cc12`, the EC50 was < 100 nM.
The same measure for `CNC(=O)c1c(-c2ccc(F)cc2)oc2cc(N(CCF)S(C)(=O)=O)c(-c3cccc(C(=O)N[C@H](COC)C4CC4)c3)cc12`: < 100 nM.

Values taken from ChEMBL document CHEMBL5725899, “Benzofurans substituted with primary benzamide as HCV inhibitors” (2018).
